Patent US12508276B2, “Use of ginsenoside M1 for treating Huntington's disease” (priority 2018, dated 2025)

Legend:
STHdh^Q109 cells [1] = assay: MTT reduction assay, survival rate of mHtt expression cells; format: cell-based, mouse; settings: 24 h
Text: Conditionally immortalized wild-type […]7 striatal neuronal progenitor cells expressing endogenous normal htt (referred to as wild-type striatal cells), and homozygous mutant […] striatal neuronal progenitor cells from homozygous […] knock-in mice expressing mutant htt with 109 glutamines (referred to as mutant striatal […] and […] cells were generous gifts from Dr. Elena Cattaneo and […] (Department of pharmacological sciences and centre for stem cell research, University of Milano, Italy). These cells were maintained in an incubation chamber at 33° C. in Dulbecco's modified Eagle's medium (DMEM) supplemented with 10% fetal bovine serum (FBS). […]7 and […] cells were treated with 30 μM ginsenoside M1 or vehicle (DMSO) for 24 h. […]7 and […] cells death was quantified by the MTT reduction assay. […] At the end of experiments, cells were incubated in culture medium with 0.5 mg/ml MTT at 37° C. for 2 h. The culture medium was then replaced with DMSO to dissolve the MTT formazan precipitates, which was followed by the measurement of the absorbance at 570 nm using a microplate reader (OPTImax tunable plate reader, Molecular Device, Sunnyvale, CA, USA). The survival rate of the indicated cells was normalized to those survival rate of untreated (vehicle-treated) […]7 cells. As shown in the FIG. 1A, the survival rate of untreated (vehicle-treated) […] cells was lower than that of untreated (vehicle-treated) […]7 cells. […] To confirm the cyto-protective effect of ginsenoside […] cells were treated with 1, 10 and 30 μM ginsenoside M1 or vehicle (DMSO) for 24 h. […] The results are express as the means±SEM of triplicate samples.

ATM = assay: Phosphorylation level of ATM by Western blot; format: cell-based, mouse; settings: STHdh^Q109 cells, 24 h, vs vehicle-treated STHdh^Q109 cells, FIG. 4
Description: ATM is activated by DNA damage and plays important role in the phosphorylation of AMPK. To investigate whether ginsenoside M1 inhibited ATM activation, […]7 and […] cells were treated with 10 and 30 μM ginsenoside M1 or vehicle (DMSO) for 24 h. The phosphorylation level of ATM was measured by Western blot.

R6/2 mice [2] = assay: Motor coordination, rotarod apparatus assay in HD disease mice; format: in vivo, mouse; settings: 30 mg/kg oral daily for 4 weeks from age of 7 weeks, rotarod 12 rpm, 2 min, FIG. 7
Description: (§1) Mice were treated daily with ginsenoside M1 (30 mg/kg of body weight, oral administration) or vehicle for 4 weeks from the age of 7 weeks. Motor coordination was assessed using a rotarod apparatus assay (UGO BASILE, Comerio, Italy) at a constant speed (12 rpm) over a period of 2 min. […] Results were expressed as means±SEM. Multiple groups were analyzed by one-way analysis of variance (ANOVA) followed by a post hoc Student-Newman-Keuls test. ^ap<0.05: between WT and R6/2-vehicle mice. ^bp<0.05: compared to R6/2-vehicle mice.

STHdh^Q109 cells [3] = assay: Cellular ROS production (H2DCFDA fluorescence); format: cell-based, mouse; settings: 1 h, FIG. 2
Description: Oxidative stress is one of the important events triggers cell death in STHdh^Q109 cells. To investigate whether ginsenoside M1 inhibited cell death of STHdh^Q109 cells by reducing oxidative stress, STHdh^Q109 cells were treated with 1, 10 and 30 μM ginsenoside M1 or vehicle (DMSO) in the presence of 10 μM intracellular ROS indicator fluorescent probe 2,7-dichlorodihydrofluorescein diacetate (H2DCFDA; Molecular Probes, Inc., Eugene, Oregon, USA) for 1 h. Cellular ROS contents were measured by detecting the fluorescence intensity (Excitation/Emission: 488 nm/510 nm) using a fluorescence plate reader (Fluoroskan Ascent; Thermo Electron Corporation, Woburn, MA, USA). […] The results are express as the means±SEM of triplicate samples. Multiple groups will analyze with one-way analysis of variance (ANOVA), follow by a post-hoc Student-Newman-Keuls test. p value of <0.05 will considered significant. ^ap<0.05: compared to untreated (vehicle-treated) STHdh^Q109 cells.

AMPK = assay: Phosphorylation level of AMPK by Western blotting; format: cell-based, mouse; settings: STHdh^Q109 cells, 24 h, vs vehicle-treated STHdh^Q109 cells, FIG. 3
Description: Activation of AMPK promotes the pathogenesis of HD [37]. To investigate whether ginsenoside M1 inhibited AMPK activation, […]7 and […] cells were treated with 10 and 30 μM ginsenoside M1 or vehicle (DMSO) for 24 h. The phosphorylation level of AMPK was measured by Western blotting.

R6/2 mice [4] = assay: Lifespan of HD disease mice; format: in vivo, mouse; settings: 30 mg/kg oral daily for 4 weeks from age of 7 weeks, FIG. 8
Description: as §1, with “weeks, and the lifespan of mice” for “weeks. Motor coordination”, “determined.” for “assessed using a rotarod apparatus assay (UGO BASILE, Comerio, Italy) at a constant speed (12 rpm) over a period of 2 min.”

p53 = assay: Phosphorylation level of p53 by Western blot; format: cell-based, mouse; settings: STHdh^Q109 cells, 24 h, vs vehicle-treated STHdh^Q109 cells, FIG. 6
Description: p53 plays a role in the regulation of the cell cycle and apoptosis. p53 becomes activated in response to DNA damage and oxidative stress. To investigate whether ginsenoside M1 inhibited the phosphorylation level of […]7 and […] cells were treated with 10 and 30 μM ginsenoside M1 or vehicle (DMSO) for 24 h. The phosphorylation level of p53 was measured by Western blot.

mHtt aggregate = assay: mHtt aggregates in striatal lysates, filter retardation assay; format: in vivo, mouse; settings: R6/2 mice, 30 mg/kg oral daily for 4 weeks from age of 7 weeks, FIG. 9
Description: Mice were treated daily with ginsenoside M1 (30 mg/kg of body weight, oral administration) or vehicle for 4 weeks from the age of 7 weeks. The amount of mHtt aggregates in striatal lysates was analyzed by a filter retardation assay. Brain tissues were suspended and homogenized in ice-cold THE buffer, mixed with 2% SDS. Samples were first passed through OE66 membrane filters ([…] pore size; Whatman Schleicher and Schuell, Middlesex, UK) in a slot-blot manifold (Bio-Rad, Irvine, CA, USA). Insoluble aggregates retained on the filters were detected using an anti-Htt antibody.

γH2AX = assay: Expression level of γH2AX by Western blot; format: cell-based, mouse; settings: STHdh^Q109 cells, 24 h, vs vehicle-treated STHdh^Q109 cells, FIG. 5
Description: ATM is now known to regulate DNA repair through the activation of γH2AX. To investigate whether ginsenoside M1 inhibited the expression level of γH2AX, […]7 and […] cells were treated with 10 and 30 μM ginsenoside M1 or vehicle (DMSO) for 24 h. The expression level of γH2AX was measured by Western blot.

Compound: CC(C)=CCC[C@](C)(O[C@@H]1O[C@H](CO)[C@@H](O)[C@H](O)[C@H]1O)[C@H]1CC[C@]2(C)[C@@H]1[C@H](O)C[C@@H]1[C@@]3(C)CC[C@H](O)C(C)(C)[C@@H]3CC[C@]12C [ginsenoside M1, 20-O-β-D-glucopyranosyl-20(S)-protopanaxadiol]
- survival rate (STHdh^Q109 cells [1]; 10 μM, FIG. 1B): significantly increased
- survival rate (STHdh^Q109 cells [1]; 30 μM, FIG. 1A): significantly increased
- survival rate (STHdh^Q109 cells [1]; 30 μM, FIG. 1B): significantly increased
- phosphorylation level of ATM (ATM; 10 μM): significantly reduced
- phosphorylation level of ATM (ATM; 30 μM): significantly reduced
- motor coordination (R6/2 mice [2]): increased significantly
- ROS production (STHdh^Q109 cells [3]; 10 μM): significantly reduced
- ROS production (STHdh^Q109 cells [3]; 30 μM): significantly reduced
- phosphorylation level of AMPK (AMPK; 10 μM): significantly reduced
- phosphorylation level of AMPK (AMPK; 30 μM): significantly reduced
- lifespan (R6/2 mice [4]): significantly prolonged
- phosphorylation level of p53 (p53; 10 μM): significantly reduced
- phosphorylation level of p53 (p53; 30 μM): significantly reduced
- mHtt aggregate formation in the striatum (mHtt aggregate): reduced
- expression level of γH2AX (γH2AX; 10 μM): significantly reduced
- expression level of γH2AX (γH2AX; 30 μM): significantly reduced
